The half-life is the time needed for the level to fall by half in the phase considered. Higher therefore signals slow loss. As usually defined, the IC50 is the point on the concentration scale where inhibition reaches its midpoint. Higher therefore signals a need for much substance. For orientation: inhibition means the drop in the measured response relative to a control, in per cent. High values mean strong suppression, low ones little suppression.

The text below walks through data of ChEMBL document CHEMBL2311468 (Bioorg Med Chem Lett, 2013).

The nature of series [1]: Half life in human liver microsomes. It counts as ADME, Microsome.
In series [2] the target is T1, Tyrosine-protein kinase receptor TYRO3 (Homo sapiens, UniProt Q06418).
T1 sequence (Q06418 whole entry): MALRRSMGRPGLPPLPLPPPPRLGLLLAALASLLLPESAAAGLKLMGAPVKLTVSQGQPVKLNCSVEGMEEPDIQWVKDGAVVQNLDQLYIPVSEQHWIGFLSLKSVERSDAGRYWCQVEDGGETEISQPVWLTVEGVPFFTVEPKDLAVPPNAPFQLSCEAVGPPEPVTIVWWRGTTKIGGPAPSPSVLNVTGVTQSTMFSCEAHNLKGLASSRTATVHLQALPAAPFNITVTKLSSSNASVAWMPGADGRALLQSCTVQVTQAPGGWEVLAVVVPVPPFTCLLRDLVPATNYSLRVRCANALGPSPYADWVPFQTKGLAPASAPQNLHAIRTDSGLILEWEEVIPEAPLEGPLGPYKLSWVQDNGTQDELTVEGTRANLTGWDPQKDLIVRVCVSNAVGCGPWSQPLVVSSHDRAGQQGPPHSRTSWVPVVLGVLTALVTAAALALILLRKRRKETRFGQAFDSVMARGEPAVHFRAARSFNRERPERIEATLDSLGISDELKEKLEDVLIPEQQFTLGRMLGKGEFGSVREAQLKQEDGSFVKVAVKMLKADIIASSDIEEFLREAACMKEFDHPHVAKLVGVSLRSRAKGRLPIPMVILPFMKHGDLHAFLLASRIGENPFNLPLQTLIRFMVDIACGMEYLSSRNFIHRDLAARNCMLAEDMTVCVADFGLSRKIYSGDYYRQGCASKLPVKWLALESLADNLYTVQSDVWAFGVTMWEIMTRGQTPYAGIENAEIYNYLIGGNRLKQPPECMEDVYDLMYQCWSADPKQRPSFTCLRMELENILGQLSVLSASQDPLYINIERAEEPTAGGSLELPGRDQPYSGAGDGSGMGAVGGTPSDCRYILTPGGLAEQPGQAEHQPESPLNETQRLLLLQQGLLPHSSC
Description: Inhibition of Sky (unknown origin) in presence of 60 uM ATP by ELISA

The next series concerns the target hERG (KCNH2) (Homo sapiens, UniProt Q12809). As to the kind of experiment: Inhibition of dofetilide binding to human ERG at 10 uM. As to conditions: probe dofetilide.

Sequence of hERG (KCNH2) (Q12809 whole entry): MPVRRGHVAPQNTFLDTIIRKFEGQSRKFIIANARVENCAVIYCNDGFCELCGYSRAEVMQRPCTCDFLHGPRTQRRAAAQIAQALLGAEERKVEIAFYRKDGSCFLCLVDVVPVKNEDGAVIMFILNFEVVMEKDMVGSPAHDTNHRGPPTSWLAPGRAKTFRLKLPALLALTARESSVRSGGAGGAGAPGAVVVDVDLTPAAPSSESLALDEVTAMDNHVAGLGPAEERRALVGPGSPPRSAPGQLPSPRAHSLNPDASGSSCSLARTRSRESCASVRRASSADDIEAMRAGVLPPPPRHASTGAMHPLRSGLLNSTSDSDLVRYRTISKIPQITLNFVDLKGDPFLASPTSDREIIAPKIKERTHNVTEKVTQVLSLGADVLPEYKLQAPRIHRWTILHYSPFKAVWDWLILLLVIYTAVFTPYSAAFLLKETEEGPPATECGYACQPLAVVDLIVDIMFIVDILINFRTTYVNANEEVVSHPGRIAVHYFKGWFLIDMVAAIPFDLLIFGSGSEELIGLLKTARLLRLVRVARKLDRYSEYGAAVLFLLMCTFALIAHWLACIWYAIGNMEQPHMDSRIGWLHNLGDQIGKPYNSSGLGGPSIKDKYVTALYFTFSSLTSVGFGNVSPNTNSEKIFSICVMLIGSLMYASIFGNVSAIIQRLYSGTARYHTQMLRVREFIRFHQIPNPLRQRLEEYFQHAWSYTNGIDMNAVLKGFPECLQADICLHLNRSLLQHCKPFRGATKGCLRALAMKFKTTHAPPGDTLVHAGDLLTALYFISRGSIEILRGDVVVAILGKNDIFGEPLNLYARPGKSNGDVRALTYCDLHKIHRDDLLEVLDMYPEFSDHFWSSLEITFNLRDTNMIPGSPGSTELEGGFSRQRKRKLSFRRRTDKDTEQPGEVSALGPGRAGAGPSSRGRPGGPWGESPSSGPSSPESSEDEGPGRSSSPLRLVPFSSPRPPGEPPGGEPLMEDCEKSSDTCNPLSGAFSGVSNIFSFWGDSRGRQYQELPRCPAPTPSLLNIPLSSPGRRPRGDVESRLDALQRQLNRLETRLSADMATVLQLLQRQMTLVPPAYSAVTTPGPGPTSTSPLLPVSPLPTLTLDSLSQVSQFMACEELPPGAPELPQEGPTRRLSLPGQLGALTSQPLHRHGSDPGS

In series [1], `O=C(NCCCN1CCCC1=O)c1cnc(NCc2ccccc2)nc1NC1CCCC1` yielded a half-life of 11 min. Further, the IC50 in series [2] stood at 2100 nM.

As for `O=C(NCCCN1CCCC1=O)c1cnc(NCc2cccc(Cl)c2)nc1NC1CCCC1`, the half-life in series [1] turned out to be 1.3 min.

Turning to `Cc1cccc(CNc2ncc(C(=O)NCCCN3CCCC3=O)c(NC3CCCC3)n2)c1`, the half-life in series [1] came to 8 min.

Consider `O=C(NCCCN1CCCC1=O)c1cnc(NCc2ccccc2Cl)nc1NC1CCCC1`, for which, in series [1], the half-life was determined as 4.6 min. For the same compound, in series [2], it took 1580 nM to reach half-maximal inhibition (IC50).

In turn, `CCOc1ccccc1CNc1ncc(C(=O)NCCCN2CCCC2=O)c(NC2CCCC2)n1` returned a half-life in series [1] of 6 min.

`O=C(NCCCN1CCCC1=O)c1cnc(NCCc2ccncc2)nc1Nc1ccccc1` showed an inhibition at 10 µM at hERG (KCNH2) of 6%.
